According to US20220324835A1 (Nurix Therapeutics, Inc., priority 2018, published 2022):

Assays:
Format in all cases: cell-based
[1] = system: primary human total T-cells; assay: T-cell activation assessed by cell proliferation (Cell Trace Violet)
Excerpt: (§1) Peripheral blood mononuclear cells (PBMC) were obtained either: 1) by using Ficoll-Paque™ (GE Healthcare) for separation of peripheral blood hematopoietic cells from buffy coats of healthy human donors; or 2) directly from FeukoPak donations. Total human primary T-cells were isolated from the PMBCs utilizing negative selection with commercial kits following the manufacturer's protocol (Miltenyi Catalog #130-096-535 (i.e., cocktail of antibodies against surface markers CD14, CD15, CD16, CD19, CD34, CD36, CD56, CD123 and CD235a are incubated with the PBMCs before passing the samples by magnetic beads for removal of cells expressing those surface markers) or StemCells Catalog #17951) to yield >95% CD3+ cells as assessed by flow cytometry. For measurement of cell proliferation, cells were labeled with Cell Trace Violet (Invitrogen) following manufacturer's protocol prior to activation by stimulation with anti-CD3 antibody alone or in combination with anti-CD28 antibody. The Cbl-b inhibitor was added to 1×10^5 cells per well at multiple concentrations (e.g., 10 μM, 1.11 μM, or 0.123 μM) with a final DMSO concentration of <0.1%. The plate was incubated for one hour at 37° C. in 5% CO2. Following incubation with the Cbl-b inhibitor, primary human total T-cells were stimulated with either plate bound anti-CD3 antibody (OKT3) alone or plate bound anti-CD3 antibody (OKT3) with soluble anti-CD28 antibody (28.2) (Life Technologies). To prepare plates with plate bound anti-CD3 antibody (OKT3), 96-well round bottom tissue culture plates were coated with 100 μl of anti-CD3 antibody (OKT3) at 10 μg/mL for 4 hours at 37° C. 5% CO2 in phosphate buffered saline (PBS). The plates were washed with PBS prior to adding the cells with or without soluble anti-CD28 antibody (28.2) to each well at a final concentration of 5 μg/mL. Cells were stimulated for 48 hours prior to harvesting the cell free supernatant and staining the cell population for surface marker assessment by flow cytometry. Supernatants were analyzed for cytokine secretion (e.g., GM-CSF, IFNγ and TNFα) by ELISA (R&D Systems, Peprotech or Life Technologies) or Luminex multiplex kits (Procarta Life Technologies) following manufacturer's protocol. Cells were stained with anti-CD69 (BD Biosciences) to assess levels of surface markers of activation. Proliferation was measured by flow cytometry and data was analyzed with FlowJo v7.6.5 or v10. Readouts were reported as fold change over baseline. In some embodiments, baseline was the measurement obtained from total human T-cells stimulated with anti-CD3 antibody alone, wherein the cells were not incubated with a Cbl-b inhibitor. In some embodiments, baseline was the measurement obtained from total human T-cells stimulated with anti-CD3 antibody and anti-CD28 antibody, where the cells were not incubated with a Cbl-b inhibitor.
(§2) Cbl-b inhibitors were tested to determine their ability to induce or enhance secretion of cytokines from T-cells (e.g., GM-CSF, IFNγ and TNFα) and/or surface expression of cell surface markers on T-cells (e.g., CD69) that is indicative of T-cell activation. Cbl-b inhibitors were also tested to determine their ability to induce or enhance T-cell proliferation. Cbl-b inhibitors were tested for their effects on T-cell activation in the presence of costimulation and where conditions were suboptimal for priming.
(§3) Readouts for T-cell activation were reported as fold change over baseline. Baseline for this study was the measurement obtained from total human T-cells stimulated with anti-CD3 antibody alone or anti-CD3 antibody in combination with soluble anti-CD28 antibody, where the cells were not incubated with a Cbl-b inhibitor. For T-cells stimulated with anti-CD3/anti-CD28 or with anti-CD3 alone changes greater than 1,2-fold over baseline for % positive CD69 staining and greater than 2-fold over baseline for % total proliferating cells were considered a significant and positive response (Table 4a). […]

[2] = system: primary human total T-cells; assay: T-cell activation assessed by cytokine secretion (GM-CSF, IFNγ, TNFα)
Excerpt: as §1, §2, §3

[3] = system: primary human total T-cells; assay: T-cell activation assessed by CD69 expression
Excerpt: as §1, §2, §3

[4] = CD3/CD28 stimulation, CD4 T-cells, read-out: % CP (cell proliferation) (CD4)
[5] = CD3/CD28 stimulation, CD8 T-cells, read-out: % CP (cell proliferation) (CD8)
[6] = CD3 alone stimulation, CD8 T-cells, read-out: % CP (cell proliferation) (CD8)
[7] = CD3/CD28 stimulation, read-out: GM-CSF secretion
[8] = CD3/CD28 stimulation, read-out: IFNγ secretion
[9] = CD3/CD28 stimulation, read-out: TNFα secretion
[10] = CD3 alone stimulation, read-out: GM-CSF secretion
[11] = CD3 alone stimulation, read-out: IFNγ secretion
[12] = CD3 alone stimulation, read-out: TNFα secretion
[13] = CD3/CD28 stimulation, CD4 T-cells, read-out: % CD69+ (CD4)
[14] = CD3/CD28 stimulation, CD8 T-cells, read-out: % CD69+ (CD8)
[15] = CD3 alone stimulation, CD4 T-cells, read-out: % CD69+ (CD4)
[16] = CD3 alone stimulation, CD8 T-cells, read-out: % CD69+ (CD8)

Row | Structure (SMILES) | fold induction at 1.11 µM [1, 4] | fold induction at 10 µM [1, 4] | fold induction at 1.11 µM [1, 5] | fold induction at 10 µM [1, 5] | fold induction at 1.11 µM [1, 6] | fold induction at 10 µM [1, 6] | fold induction at 1.11 µM [2, 7] | fold induction at 1.11 µM [2, 8] | fold induction at 1.11 µM [2, 9] | fold induction at 10 µM [2, 7] | fold induction at 10 µM [2, 8] | fold induction at 10 µM [2, 9] | fold induction at 1.11 µM [2, 10] | fold induction at 1.11 µM [2, 11] | fold induction at 1.11 µM [2, 12] | fold induction at 10 µM [2, 10] | fold induction at 10 µM [2, 11] | fold induction at 10 µM [2, 12] | fold induction at 1.11 µM [3, 13] | fold induction at 10 µM [3, 13] | also measured
1 | C[C@H](Cc1nncn1C)c1cccc(NC(=O)c2cccc(C(F)(F)F)n2)c1 [Compound 183a, (R)-N-(3-(1-(4-methyl-4H-1,2,4-triazol-3-yl)propan-2-yl)phenyl)-6-(trifluoromethyl)picolinamide] | 3.01 to 4 | > 4 | 2.01 to 3 | > 4 | 3.01 to 4 | > 4 | 2.01 to 4 | 2.01 to 3 | 2.01 to 4 | > 4 | > 4 | 2.01 to 4 | 1.51 to 2 | 2.01 to 3 | ≤ 1.5 | 2.01 to 4 | > 4 | 1.51 to 2 | 1.2 to 1.4 | 1.4 to 1.6 | fold induction at 1.11 µM [3, 14]: 1.2 to 1.4; fold induction at 10 µM [3, 14]: 1.2 to 1.4; fold induction at 1.11 µM [3, 15]: 1.4 to 1.6; fold induction at 10 µM [3, 15]: > 1.6; fold induction at 1.11 µM [3, 16]: 1.2 to 1.4; fold induction at 10 µM [3, 16]: 1.4 to 1.6
2 | Cc1cc(C(=O)Nc2cccc([C@H](C)Cc3nncn3C)c2)nc(C2CC2)n1 [Compound 195, (R)-2-cyclopropyl-6-methyl-N-(3-(1-(4-methyl-4H-1,2,4-triazol-3-yl)propan-2-yl)phenyl)pyrimidine-4-carboxamide] | < 2 | > 4 | < 2 | > 4 | < 2 | > 4 | > 4 | 2.01 to 3 | 2.01 to 4 | > 4 | > 4 | > 4 | 2.01 to 4 | 2.01 to 3 | 1.51 to 2 | 2.01 to 4 | > 4 | 1.51 to 2 | ≤ 1.2 | > 1.6 | fold induction at 1.11 µM [3, 14]: ≤ 1.2; fold induction at 10 µM [3, 14]: 1.2 to 1.4; fold induction at 1.11 µM [3, 15]: ≤ 1.2; fold induction at 10 µM [3, 15]: > 1.6; fold induction at 1.11 µM [3, 16]: ≤ 1.2; fold induction at 10 µM [3, 16]: 1.4 to 1.6
3 | C[C@H](Cc1nncn1C)c1cccc(N2Cc3c(cccc3C(F)(F)F)C2=O)c1 [Compound 255a, (R)-2-(3-(1-(4-methyl-4H-1,2,4-triazol-3-yl)propan-2-yl)phenyl)-4-(trifluoromethyl)isoindolin-1-one] | < 2 | 3.01 to 4 | < 2 | 2.01 to 3 | < 2 | < 2 | ≤ 1.5 | 3.01 to 4 | ≤ 1.5 | 1.51 to 2 | > 4 | 1.51 to 2 | ≤ 1.5 | < 2 | ≤ 1.5 | ≤ 1.5 | < 2 | ≤ 1.5 | ≤ 1.2 | 1.2 to 1.4 | fold induction at 1.11 µM [3, 14]: ≤ 1.2; fold induction at 10 µM [3, 14]: 1.2 to 1.4; fold induction at 1.11 µM [3, 15]: ≤ 1.2; fold induction at 10 µM [3, 15]: ≤ 1.2; fold induction at 1.11 µM [3, 16]: ≤ 1.2; fold induction at 10 µM [3, 16]: ≤ 1.2
4 | C[C@H](Cc1nncn1C)c1cccc(NC(=O)c2n[nH]c3c2CCC3)c1 [Compound 313, (R)-N-(3-(1-(4-Methyl-4H-1,2,4-triazol-3-yl)propan-2-yl)phenyl)-1,4,5,6-tetrahydrocyclopenta[c]pyrazole-3-carboxamide] | > 4 | > 4 | 3.01 to 4 | 2.01 to 3 | > 4 | 2.01 to 3 | ≤ 1.5 | < 2 | ≤ 1.5 | 2.01 to 4 | 2.01 to 3 | 2.01 to 4 | ≤ 1.5 | 2.01 to 3 | ≤ 1.5 | 1.51 to 2 | < 2 | ≤ 1.5 | 1.4 to 1.6 | 1.2 to 1.4 | fold induction at 1.11 µM [3, 14]: 1.2 to 1.4; fold induction at 10 µM [3, 14]: 1.2 to 1.4; fold induction at 1.11 µM [3, 15]: > 1.6; fold induction at 10 µM [3, 15]: 1.2 to 1.4; fold induction at 1.11 µM [3, 16]: 1.4 to 1.6; fold induction at 10 µM [3, 16]: ≤ 1.2
5 | Cc1cc(C(=O)Nc2cccc([C@@H](C)Cc3nncn3C)c2)nc(C2CC2)n1 [Compound 325, (S)-2-Cyclopropyl-6-methyl-N-(3-(1-(4-methyl-4H-1,2,4-triazol-3-yl)propan-2-yl)phenyl)pyrimidine-4-carboxamide] | > 4 | > 4 | 2.01 to 3 | > 4 | 2.01 to 3 | > 4 | 1.51 to 2 | 3.01 to 4 | ≤ 1.5 | 2.01 to 4 | > 4 | 2.01 to 4 | ≤ 1.5 | < 2 | ≤ 1.5 | 1.51 to 2 | < 2 | ≤ 1.5 | 1.4 to 1.6 | 1.4 to 1.6 | fold induction at 1.11 µM [3, 14]: 1.2 to 1.4; fold induction at 10 µM [3, 14]: 1.2 to 1.4; fold induction at 1.11 µM [3, 15]: 1.4 to 1.6; fold induction at 10 µM [3, 15]: > 1.6; fold induction at 1.11 µM [3, 16]: ≤ 1.2; fold induction at 10 µM [3, 16]: 1.2 to 1.4
